Where two headings read alike, the source gives them in different places.
Legend:
CK2α = CK2α (Homo sapiens, UniProt P68400); experiment: ADP-Glo kinase assay, CK2 inhibition; type: biochemical; conditions: for inhibition at 256 µM: 256 μM compound; for inhibition at 1024 µM: 1024 μM compound, read-out: inhibition rate at 1024 μM
Protocol: In vitro CK2 kinase inhibition assay were carried out for the six compounds using ADP-Glo^TM kinase assay. […] As indicated in Table 1 and Figure 5a, these compounds presented the inhibitory effect on CK2α activity to different extent. At the concentration of 16 μM, compound 3 inhibited nearly 50% of CK2α activity. However, at the same concentration, other compounds had only 20% inhibitory activity. Furthermore, except compound 2 and 6, the inhibition rates of these compounds were about 70% and 30% at 256 μM, respectively, with the dose-dependent manner. The ADP-Glo^TM Kinase Assay (Promega, Madison, WI, USA) was used to test the CK2 inhibition effects of these compounds [30, 31]. As indicated by the relevant studies, competitive and noncompetitive inhibitors show the increased and similar IC50 values with increasing concentrations of ATP, respectively. Therefore, we were able to distinguish between ATP competitive and noncompetitive inhibitors of CK2 by exploring whether the IC50 value of inhibitors will change or not at 10 and 100 μM ATP. The kinase reaction was performed in 25 μL mixture containing 10 ng casein kinase 2α, 0.1 µg/μL casein protein, 10 µM or 100 µM ATP, 1× reaction buffer and serially diluted fragments (or DMSO for control). After 60 min incubation at room temperature, 25 μL of ADP-Glo^TM Reagent was added to terminate the kinase reaction and deplete the remaining ATP. Then 50 μL Kinase Detection Reagent was added to convert ADP to ATP within 30 min, and allow the newly synthesized ATP to produce a luminescence signal using luciferase/luciferin reaction, which was recorded by the luminescence panel of Microplate Reader (Enspire2300-001A, Perkin Elmer, Waltham, MA, USA).The luminescent signal is proportional to the ADP concentration produced and correlated with the kinase activity.

A549 cancer cells = experiment: CCK-8 cell proliferation assay, A549; type: cell-based; conditions: Homo sapiens, A549, 48 h treatment, read-out: IC50, inhibition of A549 cell proliferation
Protocol: With the aim of investigating the anti-cancer cell proliferative activity of the CK2 inhibitors, compound 3 and 4 was tested against human cancer cell lines based on Cell Counting Kit-8 (CCK-8) assay. […] We presumed that the functional uracil group of two compounds, which is also presented in the anti-cancer hits 5-fluorouracil, is essential and indispensable for anti-cancer activity.
Cell Counting Kit-8 (CCK-8 Dojindo Laboratories, Kyushu, Japan) assays was used to assess the cytotoxic activities of compound 3 and 4. A549 and HeLa cancer cells were seeded in 96-well flat-bottom culture plate at 2 × 10^4 cells/well and then cultured in an incubator of 5% CO2 and 37 °C for 24 h. After cells adherence, the cells were treated with targeted compounds at various concentrations for 48 h. Blank wells (containing culture medium only) and negative wells (untreated cells) served as controls. Following, 10 μL CCK-8 solutions was add to each well and incubated for 2 h at 37 °C, the absorbance was measured at 450 nm by using a microplate reader (Enspire 2300-001A, Perkin Elmer, Waltham, MA, USA).

[1] = concentration-response, 10 μM ATP where stated, read-out: IC50 against CK2α

Sequence of CK2α (P68400 whole entry): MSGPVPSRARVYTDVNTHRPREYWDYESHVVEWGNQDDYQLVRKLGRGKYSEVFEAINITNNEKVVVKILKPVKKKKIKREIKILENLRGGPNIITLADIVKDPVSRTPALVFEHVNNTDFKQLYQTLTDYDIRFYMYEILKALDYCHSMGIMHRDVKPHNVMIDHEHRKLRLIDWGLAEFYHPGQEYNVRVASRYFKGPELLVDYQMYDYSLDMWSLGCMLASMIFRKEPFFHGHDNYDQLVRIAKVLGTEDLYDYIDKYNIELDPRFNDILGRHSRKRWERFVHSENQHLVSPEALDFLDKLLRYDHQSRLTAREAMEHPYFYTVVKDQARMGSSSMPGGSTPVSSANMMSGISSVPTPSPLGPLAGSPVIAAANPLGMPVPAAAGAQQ

Row | Structure (SMILES) | inhibition at 16 µM (CK2α; 16 μM compound) | inhibition at 256 µM (CK2α) | %Inhibition at 16 μM (CK2α; 16 μM compound, 16 µM) | inhibition at 64 µM (CK2α; 64 μM compound) | IC50 (CK2α; 100 μM ATP, read-out: IC50 against CK2α in the presence of 100 μM ATP) | mode of inhibition with respect to ATP (CK2α; IC50 compared at 10 μM and 100 μM ATP) | IC50 (CK2α; [1]) | IC50 (A549 cancer cells) | inhibition at 1024 µM (CK2α)
1 | O=C(Cc1cccc2ccccc12)Nc1c[nH]c(=O)[nH]c1=O [Compound 4] | 22% | 40% | – | – | – | – | ≤ 1020 µM | 8.8 µM | –
2 | Cc1c(Cl)cccc1NC(=O)CC1NCCNC1=O (stereo not shown) [Compound 5] | 16% | 29% | – | – | – | – | – | – | < 50%
3 | Nc1cc(=O)nc(SCc2ccccc2Cl)[nH]1 [Compound 6] | 12% | 18% | – | – | – | – | – | – | < 50%

Now from value to molecule:

Row | inhibition at 16 µM (CK2α; 16 μM compound) | inhibition at 256 µM (CK2α) | %Inhibition at 16 μM (CK2α; 16 μM compound, 16 µM) | inhibition at 64 µM (CK2α; 64 μM compound) | IC50 (CK2α; 100 μM ATP, read-out: IC50 against CK2α in the presence of 100 μM ATP) | mode of inhibition with respect to ATP (CK2α; IC50 compared at 10 μM and 100 μM ATP) | IC50 (CK2α; [1]) | IC50 (A549 cancer cells) | inhibition at 1024 µM (CK2α) | Structure (SMILES)
4 | 14% | 27% | – | – | – | – | – | – | – | COc1ccc(C(=O)Nc2ccc(C(N)=O)cc2)cc1Br [Compound 1]
5 | 16% | 19% | – | – | – | – | – | – | – | COc1ccc(C(=O)Nc2ccc3[nH]c(=O)[nH]c3c2)cc1Br [Compound 2]
6 | ~50% | 72% | 52% | > 50% | 10.2 µM | non-ATP competitive | 13 µM | 23.1 µM | – | Cc1ccc(C(=O)Nc2c[nH]c(=O)[nH]c2=O)cc1C [Compound 3]
